According to patent publication US20090221989A1, “SYSTEM AND METHOD FOR THE PREVENTION AND TREATMENT OF BACTERIAL AND FUNGAL INFECTIONS INCLUDING URINARY TRACT INFECTIONS (UTI) USING A HYPOHALOUS ACID COMPOSITION” (Novabay Pharmaceuticals Inc, priority 2005, published 2009):

Assays:
[1] = system: urease positive Escherichia coli ATCC 25922 biofilm; test: Biofilm eradication in in vitro urinary catheter flow model; format: cell-based; conditions: for Log (CFU/cm2) / Log reduction: pH 4, 0.9% NaCl; for Log (CFU/cm2): 3-day biofilm, 10 min flow + 30 min stationary, average of 9 treatments; for Log reduction: versus saline
Description: A test system was established which utilized size 14 Foley catheters (supplied by NovaCal), which were cut and installed into a pre-sterilized flow system (FIG. 1) using aseptic techniques. The system consists of five parallel channels, one channel per catheter. Sterile medium was supplied to the system via a flow-break, to prevent back-growth into the medium reservoir. The entire system was placed in a 37° C. incubator. After conditioning the system with artificial urine medium for 30 minutes, 2.0 ml inoculum from an overnight culture of urease positive Escherichia coli ATCC 25922 grown in artificial urine medium at 37° C. was introduced into the system via the valve closest to the flow break (bladder side of catheter). Each inoculum was tested to confirm urease production. After inoculation, the system remained under static conditions (no flow) for two hours, to allow for bacterial attachment to the catheters. Flow of artificial urine medium was then initiated and maintained at a rate of 0.75 ml/min for 3 days. Initial experiments were conducted to evaluate consistency of biofilm formation in the model system. […] Day 5 and Day 7 counts remained at approximately that level. It was decided that treatment would be performed on Day 3 to prevent the possibility of biofilm detachment occurring. […] Sterile sections of tubing were attached from the syringe to the valve furthest from the flow break (bag end of the catheter). This end is designated as FRONT for sampling purposes. The pump was turned on and the treatments were introduced at 2.0 ml/min for 10 minutes through the catheters. Excess medium and treatment solution was captured in a waste container. After 10 minutes, the syringe pump was turned off and the solutions were left stationary in the catheters for 30 minutes. The solutions were then withdrawn back through the catheter into the syringe, medium flow was resumed for a 30 minute rinse time and the catheters were then sampled. For efficient sampling: Each catheter was divided into 3 segments (front, middle, end) and each segment was subsampled. One subsample was used to determine bacterial populations by plate count, another subsample was analyzed by staining with the LIVE/DEAD® BaclightTM bacterial viability kit ([…], Molecular Probes, Oregon, USA) using confocal laser microscopy (CSLM), the third sample was imaged using scanning electron microscopy (SEM). For viable cell counts, a 3.0 centimeter section of tubing was removed and scraped with a sterile stainless steel rod (using aseptic technique) into a tube containing 10.0 ml of sterile phosphate-buffered saline (PBS). The tubes were then sonicated for two minutes and the suspension was vortexed for one minute. The number of viable (culturable) bacteria was enumerated by serial dilution in PBS and plate counts using the spread-plate technique. Results were expressed as CFU/cm^2 and are calculated as follows: The surface area of the internal lumen of the catheter section scraped was determined to be 2.826 cm^2. Three treatment runs were performed on 3 catheters each. One treated with PBS or sterile 0.9% saline as control, one treated with 2 mM HOCl and one treated with 20 mM HOCl. The Log (CFU/cm^2) was calculated from the average of 9 treatments, consisting of 3 treatments of 3 catheter pieces for each Test Article.

[2] = system: viable (culturable) bacteria on patient catheter; test: Ex-vivo treatment of a patient Foley catheter, viable plate counts; format: cell-based
Excerpt: A Foley catheter was removed from a patient by hospital personnel and placed in a sterile bag. In the Bozeman Deaconess Hospital (BDH) lab, the outside of the catheter was wiped down with 70% ethanol. Then the catheter was aseptically cut into 3 catheter portions (bag-end, middle and patient-end). Each portion was cut into 3.0 cm long sections using a ruler and razor blades.
Three of the sections (one bag-end, one middle and one patient-end) designated as control were placed into sterile PBS. Three of the sections (one bag-end, one middle and one patient-end) were placed in 20 mM HOCl. All catheter sections were treated for 30 minutes individually in sterile glass tubes, each with sufficient solution to be immersed completely. After treatment, each 3 cm section was removed from the treatment tubes and the PBS control tubes and placed into a second glass tube containing sterile PBS for a 2 minute rinse in order to remove the treatment solution. The section was then removed from the tube and aseptically cut into 1.0 cm and 2.0 cm pieces. The 2.0 cm piece was placed in a tube containing 10 ml of sterile PBS, vortexed, sonicated and diluted for viable plate counts. The number of viable (culturable) bacteria was enumerated by serial dilution in PBS and plate counts using the spread-plate technique. Samples were plated on blood agar plates. Results will be expressed as colony-forming units/cm^2, CFU/cm^2 (calculated as 2.0 cm length×0.25 cm (radius)×3.14 (pi)=1.57 cm^2). The 1.0 cm piece was placed in 4% formaldehyde solution.

[3] = system: Escherichia coli ATCC 25922 biofilm; test: Biofilm disinfection on 1-cm Foley catheter pieces, plate count; format: cell-based; conditions: HOCl 2 mM in 0.9% saline pH 3.5, 48 h biofilm
Description: (§1) We have devised a dynamic in vitro model using traditional microbiological methods to assess the antimicrobial efficacy of 2 mM HOCl in 0.9% saline at pH 3.5, as compared to physiological saline in disinfecting intra-luminal and extra-luminal indwelling Foley catheter.
(§2) Foley Catheter, manufactured by BARD HOCl (2 mM) in 0.9% saline pH 3.5 (150 mM) Escherichia coli ATCC 25922 Proteus mirabilis ATCC 29245
(§3) Neutralizer Broth: A broth containing dextrose, lecithin, sodium thiosulfate, pancreatic digest of casein, Tween® 80, yeast extract, sodium bisulfate, sodium thioglycollate, monopotassium phosphate, and bromcresol purple.
(§4) The ability of HOCl to destroy biofilm formation was evaluated as follows. First, biofilm was established on 1-cm-long pieces of catheter for 48 hours in nutrient broth in the presence of either Proteus mirabilis or Escherichia coli. Subsequently, the biofilm-bearing pieces of catheter were exposed to 2 mM HOCl in 0.9% saline at pH 3.5 over various periods of time. After the exposures the pieces of catheter were transferred into 1 mL of neutralizer broth to stop the reaction. 0.1 mL (10%) of the neutralizer broth was then plated out onto nutrient agar and the number of colonies was counted. The CFU (Colony Forming Unit) values obtained were multiplied by 10 to obtain the actual CFU/mL values per treated sample.

[4] = system: Proteus mirabilis ATCC 29245 biofilm; test: as above; format: cell-based; conditions: HOCl 2 mM in 0.9% saline pH 3.5, 48 h biofilm
Description: as §1, §2, §3, §4

[5] = system: E. coli and Pr. mirabilis biofilm; test: Biofilm disinfection on Foley catheter pieces, both organisms pooled: re-culture OD600, overall CFU, visual examination; format: cell-based, Escherichia coli; Proteus mirabilis; conditions: HOCl 2 mM in 0.9% saline pH 3.5
Description: as §4, with “sample. In order to measure the amount of live bacteria left on the pieces of catheter following treatment, the biofilm-bearing pieces of catheter were transferred into tubes containing fresh growth medium. After allowing growth in a shaker at 37° C. for 4 hours, Optical Density (OD) was read at 600 nm. […] This was also shown by very low optical density readings (average of 0.057 OD600 units, individual data not listed) following the attempt to re-culture the bacteria from treated catheters.” for “sample.”

[6] = system: urease positive Escherichia coli ATCC 25922 biofilm; test: Biofilm prevention in in vitro urinary catheter flow model; format: cell-based
Description: Day 0: The test system, as described in detail above, utilized size 14 Foley catheters, cut and installed into a pre-sterilized flow system using aseptic techniques. Sterile medium was supplied to the system via a flow-break, to prevent back-growth into the medium reservoir. The entire system was placed into a 37 AC incubator. After conditioning the system with artificial urine medium for 30 minutes, each catheter was treated with a disinfectant. 20.0 ml of each treatment solution was loaded into 30 ml syringes and connected to a syringe pump. Sterile sections of tubing were attached from the syringe to the valve furthest from the flow break (bag end of the catheter). This end is designated as FRONT for sampling purposes. The pump was turned on and the treatments were introduced at 2.0 ml/min for 10 minutes through the catheters. Excess medium and treatment solution was captured in a waste container. After 10 minutes, the syringe pump was turned off and the solutions were left stationary in the catheters for 30 minutes. The solutions were then withdrawn back through the catheter into the syringe. The catheters were then rinsed with sterile medium for 30 minutes. On Day 0 only: An inoculum from an overnight culture of urease positive Escherichia coli ATCC 25922 grown in artificial urine medium at 37° C. was introduced into the system via the valve closest to the flow break (bladder side of catheter). Each inoculum was tested for confirmation of urease production. After inoculation, the system remained under static conditions (no flow) for two hours, to allow for bacterial attachment to the catheters. Flow of artificial urine medium was then initiated and maintained at a rate of 0.75 ml/min. Days 1, 3 and 5: For viable cell counts, a 3.0 centimeter section of tubing was removed and scraped with a sterile stainless steel rod (using aseptic technique) into a tube containing 10.0 ml of sterile PBS. The tubes were then sonicated for two minutes and the suspension was vortexed for one minute. The number of viable (culturable) bacteria was enumerated by serial dilution in PBS and plate counts using the spread-plate technique. Results are expressed as CFU/cm^2 and were calculated as described in Phase One. Days 1 and 3: After sampling, the catheters were disinfected and rinsed with sterile medium as described above. Days 2 and 4: the catheters were disinfected and rinsed with sterile medium as described above. No samples were taken. Day 5: Samples were taken for imaging and both ends of the catheter were sampled for viable cell count data.

[7] = HOCl 20 mM, pH 4, 0.9% NaCl, 30 minutes immersion

SMILES: OCl [HOCl, hypochlorous acid]
- Log (CFU/cm2) ([1]; HOCl 2 mM): 4.8 Log (CFU/cm2)
- Log reduction ([1]; HOCl 2 mM): −4.3
- bacterial removal, higher versus lower concentration ([1]; HOCl 20 mM versus 2 mM): significantly more bacterial removal than the lower concentration
- Log (CFU/cm2) ([1]; HOCl 20 mM): 2.5 Log (CFU/cm2)
- Log reduction ([1]; HOCl 20 mM): −6.6
- bacterial counts and presence of biofilm (visual interpretation from images) ([1]; HOCl at 2 mM and 20 mM): significantly reduced bacterial counts and the presence of biofilm
- Log reduction ([2]; HOCl 20 mM versus sterile PBS, average of 3 pieces): 2.4
- Average Log CFU/cm^2 on catheter section after treatment, Bag end [2, 7]: 0.50 Log CFU/cm^2
- Average Log CFU/cm^2 on catheter section after treatment, average 3 pieces [2, 7]: 0.53 Log CFU/cm^2
- Average Log CFU/cm^2 on catheter section after treatment, middle [2, 7]: 0.58 Log CFU/cm^2
- Average Log CFU/cm^2 on catheter section after treatment, patient end [2, 7]: 0.50 Log CFU/cm^2
- CFU/mL ([3]; exposure 5 min): 460 CFU/mL
- CFU/mL ([3]; exposure 10 min): 0 CFU/mL
- CFU/mL ([3]; exposure 20 min): 0 CFU/mL
- CFU/mL ([3]; exposure 30 min): 0 CFU/mL
- CFU/mL ([3]; exposure 45 min): 0 CFU/mL
- CFU/mL ([3]; exposure 60 min): 0 CFU/mL
- CFU/mL ([3]; exposure 120 min): 0 CFU/mL
- CFU/mL ([3]; exposure <1 min): 50 CFU/mL
- CFU/mL ([4]; exposure 5 min): 110 CFU/mL
- CFU/mL ([4]; exposure 10 min): 40 CFU/mL
- CFU/mL ([4]; exposure 20 min): 50 CFU/mL
- CFU/mL ([4]; exposure 30 min): 0 CFU/mL
- CFU/mL ([4]; exposure 45 min): 20 CFU/mL
- CFU/mL ([4]; exposure 60 min): 0 CFU/mL
- CFU/mL ([4]; exposure 120 min): 90 CFU/mL
- CFU/mL ([4]; exposure <1 min): >>3000 CFU/mL
- visual examination of biofilm on catheter surface [5]: subsequent removal
- optical density readings after re-culture of treated catheters (average) ([5]; 4 h growth at 37° C. in fresh medium, average, individual data not listed): 0.057 OD600 units
- recoverable CFU/mL bacteria ([5]; catheters infected 48 hours): minimal recoverable CFU/mL bacteria
- inhibition of biofilm formation ([6]; 5 day duration, 20 mM): appeared to inhibit biofilm formation
- viable cell count Day 1 ([6]; Day 1, daily treatment, HOCl 20 mM pH 4 0.9% NaCl, vinegar 1:3 in water, Neomycin 1 ml in 1000 ml saline): 3.5 CFU/cm^2
- viable cell count Day 3 ([6]; Day 3, daily treatment, HOCl 20 mM pH 4 0.9% NaCl, vinegar 1:3 in water, Neomycin 1 ml in 1000 ml saline): 0.0 CFU/cm^2
- viable cell count Day 5 “Front” (bag end) ([6]; Day 5, bag end, daily treatment, HOCl 20 mM pH 4 0.9% NaCl, vinegar 1:3 in water, Neomycin 1 ml in 1000 ml saline): 0.0 CFU/cm^2
- viable cell count Day 5 “End” (bladder end) ([6]; Day 5, bladder end, daily treatment, HOCl 20 mM pH 4 0.9% NaCl, vinegar 1:3 in water, Neomycin 1 ml in 1000 ml saline): 0.0 CFU/cm^2
- inhibition of biofilm formation compared to vinegar and Neosporin ([6]; especially by Day 5, 20 mM): significantly better at inhibiting biofilm formation
